In patent US10869878B2, “Vaginal composition and use thereof” (SINGAPORE ZE&Z INTERNATIONAL PTE. LTD, priority 2014, dated 2020):

How the values were obtained:
BV-associated bacteria = test: Acid production by BV-associated bacteria in carbohydrate containing gels, slightly aerobic incubation (Experimental Example 1); type: cell-based; conditions: 1% (w/v) carbohydrate gel
Description: (1) Grouping in experiment: • (1) Isomaltulose group: containing 1% (w/v) isomaltulose, MRS basal medium without carbohydrate, 5% (w/v) calf serum, and 0.5% (w/v) xanthan gum, pH5.4; • (2) Isomaltose group: containing 1% (w/v) isomaltose, MRS basal medium without carbohydrate, 5% (w/v) calf serum, and 0.5% (w/v) xanthan gum, pH5.4; • (3) Sucrose group: containing 1% (w/v) sucrose, MRS basal medium without carbohydrate, 5% (w/v) calf serum, and 0.5% (w/v) xanthan gum, pH5.4; and • (4) Maltose group: containing 1% (w/v) maltose, MRS basal medium without carbohydrate, 5% (w/v) calf serum, and 0.5% (w/v) xanthan gum, pH5.4.
The gel of each group was formulated essentially following the method described in Composition Example 1, then sterilized, added with calf serum, and packed in test tubes in a specification of 5 g/tube, for late use.
(2) Secretion specimens from BV patients: vaginal secretions from 5 BV patients; and the criteria of inclusion are: • (1) conforming to the Amsel clinical criteria of BV diagnosis, wherein the pH value of the vaginal secretions was >4.6; • (2) after smearing, Gram staining and microscopical examination of vaginal secretions, Nugent score ≥7; and • (3) no other vaginosis and no antimicrobial agent is used within two weeks.
(3) After sampling, the secretion specimens from BV patients meeting the criteria of inclusion were immediately inoculated to the above 4 gels containing a carbohydrate, and slightly aerobically incubated at 37° C. for 46 hrs. The pH values of the gel matrices are detected with a precise pH test paper respectively at 14 hrs, 36 hrs, and 46 hrs.

[1] = system: Lactobacilli in the secretions from BV patients; test: Selective promotion of carbohydrate containing gels for the growth of Lactobacilli, 16s rDNA identification (Experimental Example 4); type: cell-based; conditions: secretions from 20 BV patients; 1% (w/v) carbohydrate gel, 48 hrs slightly aerobic
Method: (3) After sampling, the vaginal secretion specimens from BV patients meeting the criteria of inclusion were immediately inoculated to the above 4 gels containing a carbohydrate, slightly aerobically incubated at 37° C. for 48 hrs, then transferred to a plate containing improved MRS with 1% (w/v) glucose and 5% (w/v) calf serum, slightly aerobically incubated for 20-48 hrs, isolated, purified and multiplied. The strain was identified by 16s rDNA sequencing.

[2] = Specimen 1, 14 hrs, slightly aerobic, 37° C., initial pH 5.4
[3] = Specimen 1, 46 hrs, slightly aerobic, 37° C., initial pH 5.4
[4] = Specimen 2, 14 hrs, slightly aerobic, 37° C., initial pH 5.4
[5] = Specimen 2, 46 hrs, slightly aerobic, 37° C., initial pH 5.4
[6] = Specimen 3, 14 hrs, slightly aerobic, 37° C., initial pH 5.4
[7] = Specimen 3, 36 hrs, slightly aerobic, 37° C., initial pH 5.4
[8] = Specimen 4, 14 hrs, slightly aerobic, 37° C., initial pH 5.4
[9] = Specimen 4, 36 hrs, slightly aerobic, 37° C., initial pH 5.4
[10] = Specimen 5, 14 hrs, slightly aerobic, 37° C., initial pH 5.4
[11] = Specimen 5, 36 hrs, slightly aerobic, 37° C., initial pH 5.4

SMILES	pH of the gel (BV-associated bacteria; Specimen 1, 0 hr (initial))	pH of the gel (BV-associated bacteria; [2])	pH of the gel (BV-associated bacteria; [3])	pH of the gel (BV-associated bacteria; Specimen 2, 0 hr (initial))	pH of the gel (BV-associated bacteria; [4])	pH of the gel (BV-associated bacteria; [5])	pH of the gel (BV-associated bacteria; Specimen 3, 0 hr (initial))	pH of the gel (BV-associated bacteria; [6])	pH of the gel (BV-associated bacteria; [7])	pH of the gel (BV-associated bacteria; Specimen 4, 0 hr (initial))	pH of the gel (BV-associated bacteria; [8])	pH of the gel (BV-associated bacteria; [9])	pH of the gel (BV-associated bacteria; Specimen 5, 0 hr (initial))	pH of the gel (BV-associated bacteria; [10])	pH of the gel (BV-associated bacteria; [11])	samples positive for Lactobacilli, In total [1]	total number of samples positive for L. amylovorus incubation [1]	total number of samples positive for L. crispatus incubation [1]	total number of samples positive for L. gasseri incubation [1]	total number of samples positive for L. iners incubation [1]	further results
OC[C@H]1O[C@@](CO)(O[C@H]2O[C@H](CO)[C@@H](O)[C@H](O)[C@H]2O)[C@@H](O)[C@@H]1O [Sucrose, sucrose]	5.4	≤3.8	≤3.8	5.4	4.4	≤3.8	5.4	4.8-5.1	4.4-4.6	5.4	4.8-5.1	≤3.8	5.4	4.4-4.6	4.4-4.6	9	1	1	2	0	total number of samples positive for L. jensenii incubation [1]: 4; total number of samples positive for L. mucosae incubation [1]: 1
OC[C@H]1O[C@H](OC[C@H]2OC(O)(CO)[C@@H](O)[C@@H]2O)[C@H](O)[C@@H](O)[C@@H]1O (stereo partly drawn) [Isomaltulose, isomaltulose]	5.4	≤3.8	≤3.8	5.4	4.1	≤3.8	5.4	3.8-4.1	≤3.8	5.4	4.1	≤3.8	5.4	4.1-4.4	≤3.8	9	1	1	2	0	total number of samples positive for L. jensenii incubation [1]: 4^1; total number of samples positive for L. mucosae incubation [1]: 1
OC[C@H]1O[C@H](OC[C@H]2OC(O)[C@H](O)[C@@H](O)[C@@H]2O)[C@H](O)[C@@H](O)[C@@H]1O (stereo partly drawn) [Isomaltose, isomaltose]	5.4	3.8	≤3.8	5.4	4.1-4.4	≤3.8	5.4	4.1-4.4	≤3.8	5.4	4.4	≤3.8	5.4	4.1-4.4	4.1-4.4	9	1	1	2	0	total number of samples positive for L. jensenii incubation [1]: 4; total number of samples positive for L. mucosae incubation [1]: 1
